Marks after values point to notes of the source that are not given here.
What was measured:
[1] = tested on: T47D; test: In vivo efficacy, T47D breast cancer model; set-up: species or system mice; settings: Day 41, 10 mg/kg BID PO
Experimental: (§1) The T47D model was established by implanting passage 3 tumor fragments into recipient mice. To establish the T47D donor mice, tumor cells (5×10^6 cell/mouse with 50% Cultrex® Basement Membrane Matrix) were subcutaneously implanted in female NSG mice. […] All mice received treatment continuously until Day 41. TGI was assessed on Day 41 post first dose.

[2] = tested on: MCF7 Cells; test: Combination cell proliferation assay, MCF7; type: cell-based, human
Experimental: (§2) The combination effects of PF-07104091 with palbociclib were evaluated in a cell proliferation assay with MCF7 and T47D BC cell lines. […] Drug combinations were analyzed using the Dose Equivalence Principle, and the Loewe Volume score. When modeling synergy using the Dose Equivalence Principle, the Loewe Volume score for the combination compounds should be greater than the compound self-cross controls, and the Combination Index score for the combination compounds should be less than compound self-cross controls. […] Furthermore, the isobolograms set to an anti-proliferation threshold at 70% confirm a synergistic response.

[3] = tested on: T-47D Cells; test: Combination cell proliferation assay, T47D; type: cell-based, human
Experimental: as §2

[4] = tested on: ST941PBR PDX; test: In vivo efficacy, palbociclib-resistant ST941PBR PDX model; settings: Day 28, 10 mg/kg BID PO
Experimental: Female NSG mice (Jackson Lab) were subcutaneously implanted with fragment (27 mm^3 to 64 mm^3 size) into the dorsal region. All mice for T47D, HCC1428 and ST941 PBR studies were supplemented with 8.5 μg/mL estradiol water (β-Estradiol Sigma-Aldrich, cat #E2758-5G) and gave ad libitum till end of study. For the in vivo efficacy studies, tumor volume and body weights were measured twice a week. Tumor volume was calculated using the [(Length×Width×Width)/2)] formula. TGI was calculated as 100*(1−ΔT/ΔC). The ΔC (ΔT) was obtained by subtracting the mean tumor burden in the vehicle (treated) group on the first day of treatment (Day 0) from the mean tumor burden in vehicle (treated) group on the assessment day. Statistical analysis was performed using ANCOVA when the mean tumor volume in vehicle treated mice reached tumor cutoff size.
The ST941 PBR palbociclib resistant model was obtained from XENOSTART™ LLC, San Antonio, Texas. We established model in house by continuous treatment of the ST941 PBR tumor bearing mice with PD-0332991 at 50 mg/kg, PO QD plus fulvestrant at 10 mg/kg, SC twice in the first week, then weekly thereafter. To propagate donors for the TGI study, tumors were transplanted to recipient mice. One week after the re-implantation, the recipient mice received continuous treatment with palbociclib plus fulvestrant (dosing schedule described above). After 1 to 2 serial in vivo propagation with the same treatment regimen, the resistant tumors in the range of 700 to 800 mm^3 were re-implanted for a study expansion. The remaining tumor fragments were viably frozen for future use.
The live donor mice were established by implanting ST941 PBR (p11) tumor fragments. Once reaching a range of 700 to 800 mm^3, the donor tumors were subsequently transplanted into secondary recipient mice for a study expansion. To maintain the resistant clones, the ST941 PBR tumor bearing mice were treated with PD-0332991 at 50 mg/kg, PO. QD plus fulvestrant at 10 mg/kg, SC twice in the first week, then weekly afterwards for 10 weeks. […] TGI was assessed on Day 28 post first dose.

[5] = tested on: NCI-H526 Model; test: In vivo efficacy, NCI-H526 small cell lung cancer model; set-up: species or system mice
Experimental: Female NSG (Jackson Lab) or Nu/nu (CRL) were subcutaneously implanted with tumor cells or fragments (8 mm^3 to 27 mm^3) into the dorsal region. For the MCF7 study, mice were supplemented with estrogen (sc implanted, 17β-estradiol, 0.36 mg, 90-day release pellet, Innovative Research of America, cat no. NE-121).
To establish the NCI-H526 model, tumor cells (4×10^6 cells/mouse with 50% Cultrex® Basement Membrane Matrix) were subcutaneously implanted in female Nu/nu mice. […] PF-07104091, Palbociclib at 10 mg/kg and CDK 2/4/6 inhibitor were administered (p.o.) BID (7 hr apart). TGI was assessed on Day 15 post first dose (or Day 20 post tumor cell implant).

[6] = tested on: HCC1428; test: In vivo efficacy, HCC1428 breast cancer model; set-up: species or system mice; settings: Day 42, 10 mg/kg BID PO, 10 mg/kg
Experimental: as §1, with “HCC1428” for “T47D”, “4” for “3”, “42.” for “41.”, “42” for “41”

For `CC(=O)c1c(C)c2cnc(Nc3ccc(N4CCNCC4)cn3)nc2n(C2CCCC2)c1=O` [Palbociclib, palbociclib, reference compound], the TGI % [1] was 72* %, the “Loewe Volume” value [2] was −0.16 and the “Best CI” value ([2]; Best CI Level 70) was 0.94. The “Loewe Volume” value [3] was −0.25, the “Best CI” value ([3]; Best CI Level 70) was 0.96 and the TGI % [4] was 15%. For the same molecule, the TGI % ([5]; 10 mg/kg BID PO, Day 15) was 33%, the TGI % ([5]; 10 mg/kg BID PO, Day 15, listed as palbociclib) was 33% and the TGI % ([5]; 50 mg/kg SID PO, Day 15) was 22%. The TGI % ([5]; 50 mg/kg SID PO, Day 15, listed as palbociclib) was 22%, the TGI % [6] was 44* % and the TGI % ([6]; listed as palbociclib) was 44%.
